Results: US6339081B1, “Composition and use” (priority 1996, dated 2002)

Tests used:
Assay type in all cases: cell-based
[1] = system: Pseudomonas aeruginosa NCIB 10421; experiment: MIC and Fractional Inhibitory Concentration (FIC) in microtitre array; conditions: for synergy with ZHMT: ZnAc replaced by the same weight of the metal salt
Experimental: The gram negative bacterium, Pseudomonas aeruginosa NCIB 10421 was grown in nutrient broth to stationary phase during 18 hours and contained approximately 10^9 organisms/ml. A 0.1% (v/v) inoculum was used to seed fresh nutrient broth and 100 μl was then added to each well of a microtitre plate, except for the first well which contained 200 μl.
Solutions of zinc acetate (ZnAc) and the 2:1 zinc complex of 3-hydroxy-4-methylthiazol-2(3H)-thione (ZHMT), respectively, were prepared in nutrient broth at twice the final concentration to be used in the microtitre array. A microtitre array was prepared with concentration of zinc acetate and ZHMT from twice the MIC down to zero concentration in a 10×10 array. Since the array contains only 96 wells, the highest and lowest concentration of the zinc acetate and ZHMT were omitted. The dilution of the ZHMT was doubled across the ordinate axis of the array by transferring 100 μl aliquots so that the final volume in each well was 200 μl. The microtitre plate was then incubated for 16 to 24 hours at 37° C. and the presence of bacterial growth assessed visually.
The FIC is defined as the sum of the fractional inhibitory concentration of each component. The FIC of the individual component is the ratio of the concentration of the component in the binary mixture divided by its MIC.

[2] = system: mixed bacterial culture; experiment: Preservation of unpreserved latex, repeated challenge with mixed bacterial culture; set-up: key to Viable bacteria, Third inoculum (days) 5 / Viable bacteria, Third inoculum (days) 7 / Viable bacteria, First inoculum (days) 3 / Viable bacteria, First inoculum (days) 5 / Viable bacteria, First inoculum (days) 7 / Viable bacteria, Second inoculum (days) 3 / Viable bacteria, Second inoculum (days) 5 / Viable bacteria, Second inoculum (days) 7 / Viable bacteria, Third inoculum (days) 3: C is confluent growth over the surface; − is no visible colonies; + is few visible colonies; ++ is clusters of discreet colonies; conditions: latex
Experimental: Aliquots (25 parts) of unpreserved latex containing 50% by weight solids of a copolymer of 2-ethylhexylacrylate/acrylic acid at pH 8.5 were formulated with zinc acetate and the 2:1 zinc complex of 3-hydroxy4-methyl thiazol-2(3H)-thione in the amounts shown in Table 1 below. After formulation, each aliquot was stored at 20° C. for 1 week prior to inoculation with a mixed bacterial culture.
The bacterial culture was prepared by culturing the following seven bacteria in nutrient agar for 24 hours at 30° C.
Each of the individual bacterium was prepared at a concentration of 10^8 cells/ml in quarter strength Ringers solution by means of a Thoma counting chamber. The mixed inoculum was prepared by mixing equal volumes of the cultures containing the individual bacterium.
The latex aliquots were repeatedly inoculated at 0, 7 and 14 day intervals with 0.5 ml mixed inoculum (2×10^6 cells/ml) and incubated at 30° C. The number of viable bacteria was determined by streaking a small portion of each aliquot of latex onto nutrient agar after 3, 5 and 7 days followed by visible assessment after incubation for 2 days at 30° C.

[3] = system: contaminated matt paint millbase; experiment: Viable cells in contaminated matt paint millbase; set-up: key to Viable cells after (days) 5 / Viable cells after (days) 7 / Viable cells after (days) 14: C is confluent growth over the surface; − is no visible colonies; + is few visible colonies; ++ is clusters of discreet colonies
Experimental: 25 ml Aliquots of a contaminated matt paint millbase were formulated with the 2:1 zinc complex of 3-hydroxy-4-methylthiazol-2(3H)-thione and zinc acetate as shown in Table 2 below. The number of variable cells was determined by streaking a small portion of each aliquot of millbase onto nutrient agar after 5, 7 and 14 days. The number of cells was determined by visible assessment following incubation for 2 days at 30° C.

[4] = system: mixed inoculum; experiment: Preservation of styrene-acrylic emulsion paint, challenge with mixed inoculum; set-up: key to Bacterial growth, First Inoculum Days 4 / Bacterial growth, First Inoculum Days 7 / Bacterial growth, Second Inoculum Days 4 / Bacterial growth, Second Inoculum Days 7 / Bacterial growth, Second Inoculum Days 14 / Bacterial growth, Third Inoculum Days 4 / Bacterial growth, Third Inoculum Days 7 / Bacterial growth, Third Inoculum Days 21: − = no growth (no visible colonies); + = light growth (a few visible colonies); ++ = moderate growth (discrete colonies visible, some coalescence); +++ = dense, confluent growth (coalescing colonies visible throughout streak); conditions: for Bacterial growth, First Inoculum Days 4 / Bacterial growth, First Inoculum Days 7 / Bacterial growth, Second Inoculum Days 4 / Bacterial growth, Second Inoculum Days 7 / Bacterial growth, Second Inoculum Days 14 / Bacterial growth, Third Inoculum Days 4 / Bacterial growth, Third Inoculum Days 7 / Bacterial growth, Third Inoculum Days 21: emulsion paint
Experimental: An inoculum was prepared containing the following micro-organisms:
Each of the individual bacterium was cultured in nutrient agar and incubated at 30° C. for 24 hours followed by suspension in quarter strength Ringers solution by means of a Thoma countering chamber to give 10^8 cells/ml. A mixed inoculum was prepared by combining equal volumes.
An aliquot of the starch containing the ZHMT, and optionally zinc acetate, was inoculated weekly with 0.5 ml of the mixed inoculum on three occasions to give 2×10^6 cells/ml. The aliquots were then incubated at 30° C. and examined for bacterial growth by streaking a small sample onto nutrient agar and incubating at 30° C. for 2 days prior to visual examination.
Aliquots of a styrene-acrylic emulsion paint were treated with the 2:1 zinc complex of 3-hydroxy-4-methylthiazol-2(3H)-thione (ZHMT) optionally containing zinc acetate (ZnAc) or zinc oxide (ZnO). These aliquots were challenged with the mixed inoculum described in Example 5 and examined for bacterial growth as described in this previous example.

[5] = Amount 25 ppm of each component present
[6] = Amount 50 ppm of each component present
[7] = Amount 100 ppm of each component present
[8] = Amount 200 ppm of each component present

manganese chloride
synergy with ZHMT [1]: no synergy

[Cl][Cu][Cl] [cupric chloride]
synergy with ZHMT [1]: no synergy

Cc1csc(=S)n1[O-].Cc1csc(=S)n1[O-].[Zn+2] [ZHMT, 2:1 zinc complex of 3-hydroxy-4-methylthiazol-2(3H)-thione]
activity in the presence of both zinc salts ([2]; especially after repeated challenge): significantly enhanced | Viable bacteria, First inoculum (days) 3 [2, 5]: − | Viable bacteria, First inoculum (days) 5 [2, 5]: − | Viable bacteria, First inoculum (days) 7 [2, 5]: − | Viable bacteria, Second inoculum (days) 3 [2, 5]: C | Viable bacteria, Second inoculum (days) 5 [2, 5]: C | Viable bacteria, Second inoculum (days) 7 [2, 5]: C | Viable bacteria, Third inoculum (days) 3 [2, 5]: C | Viable bacteria, Third inoculum (days) 5 [2, 5]: C | Viable bacteria, Third inoculum (days) 7 [2, 5]: C | Viable bacteria, First inoculum (days) 3 [2, 6]: ++ | Viable bacteria, First inoculum (days) 5 [2, 6]: − | Viable bacteria, First inoculum (days) 7 [2, 6]: − | Viable bacteria, Second inoculum (days) 3 [2, 6]: ++ | Viable bacteria, Second inoculum (days) 5 [2, 6]: + | Viable bacteria, Second inoculum (days) 7 [2, 6]: + | Viable bacteria, Third inoculum (days) 3 [2, 6]: C | Viable bacteria, Third inoculum (days) 5 [2, 6]: C | Viable bacteria, Third inoculum (days) 7 [2, 6]: C | Viable bacteria, First inoculum (days) 3 [2, 7]: ++ | Viable bacteria, First inoculum (days) 5 [2, 7]: − | Viable bacteria, First inoculum (days) 7 [2, 7]: − | Viable bacteria, Second inoculum (days) 3 [2, 7]: ++ | Viable bacteria, Second inoculum (days) 5 [2, 7]: + | Viable bacteria, Second inoculum (days) 7 [2, 7]: − | Viable bacteria, Third inoculum (days) 3 [2, 7]: ++ | Viable bacteria, Third inoculum (days) 5 [2, 7]: ++ | Viable bacteria, Third inoculum (days) 7 [2, 7]: ++ | Viable bacteria, First inoculum (days) 3 [2, 8]: + | Viable bacteria, First inoculum (days) 5 [2, 8]: − | Viable bacteria, First inoculum (days) 7 [2, 8]: − | Viable bacteria, Second inoculum (days) 3 [2, 8]: ++ | Viable bacteria, Second inoculum (days) 5 [2, 8]: + | Viable bacteria, Second inoculum (days) 7 [2, 8]: − | Viable bacteria, Third inoculum (days) 3 [2, 8]: ++ | Viable bacteria, Third inoculum (days) 5 [2, 8]: ++ | Viable bacteria, Third inoculum (days) 7 [2, 8]: ++ | Viable cells after (days) 5 [3, 5]: C | Viable cells after (days) 7 [3, 5]: C | Viable cells after (days) 14 [3, 5]: C | Viable cells after (days) 5 [3, 6]: C | Viable cells after (days) 7 [3, 6]: C | Minimum Inhibitory Concentrations (MIC) ([1]; nutrient broth, 16 to 24 hours at 37° C., single component): 32 ppm | FIC ([1]; single component, relative conc. 1): 1 | Bacterial growth, First Inoculum Days 4 ([4]; Conc. 10 (ppm ZHMT)): − | Bacterial growth, First Inoculum Days 7 ([4]; Conc. 10 (ppm ZHMT)): − | Bacterial growth, Second Inoculum Days 4 ([4]; Conc. 10 (ppm ZHMT)): +++ | Bacterial growth, Second Inoculum Days 7 ([4]; Conc. 10 (ppm ZHMT)): +++ | Bacterial growth, Second Inoculum Days 14 ([4]; Conc. 10 (ppm ZHMT)): +++ | Bacterial growth, Third Inoculum Days 4 ([4]; Conc. 10 (ppm ZHMT)): +++ | Bacterial growth, Third Inoculum Days 7 ([4]; Conc. 10 (ppm ZHMT)): +++ | Bacterial growth, Third Inoculum Days 21 ([4]; Conc. 10 (ppm ZHMT)): +++ | Bacterial growth, First Inoculum Days 4 ([4]; Conc. 25 (ppm ZHMT)): − | Bacterial growth, First Inoculum Days 7 ([4]; Conc. 25 (ppm ZHMT)): − | Bacterial growth, Second Inoculum Days 4 ([4]; Conc. 25 (ppm ZHMT)): +++ | Bacterial growth, Second Inoculum Days 7 ([4]; Conc. 25 (ppm ZHMT)): +++ | Bacterial growth, Second Inoculum Days 14 ([4]; Conc. 25 (ppm ZHMT)): +++ | Bacterial growth, Third Inoculum Days 4 ([4]; Conc. 25 (ppm ZHMT)): +++ | Bacterial growth, Third Inoculum Days 7 ([4]; Conc. 25 (ppm ZHMT)): +++ | Bacterial growth, Third Inoculum Days 21 ([4]; Conc. 25 (ppm ZHMT)): +++ | Bacterial growth, First Inoculum Days 4 ([4]; Conc. 50 (ppm ZHMT)): − | Bacterial growth, First Inoculum Days 7 ([4]; Conc. 50 (ppm ZHMT)): − | Bacterial growth, Second Inoculum Days 4 ([4]; Conc. 50 (ppm ZHMT)): +++ | Bacterial growth, Second Inoculum Days 7 ([4]; Conc. 50 (ppm ZHMT)): +++ | Bacterial growth, Second Inoculum Days 14 ([4]; Conc. 50 (ppm ZHMT)): +++ | Bacterial growth, Third Inoculum Days 4 ([4]; Conc. 50 (ppm ZHMT)): +++ | Bacterial growth, Third Inoculum Days 7 ([4]; Conc. 50 (ppm ZHMT)): +++ | Bacterial growth, Third Inoculum Days 21 ([4]; Conc. 50 (ppm ZHMT)): +++ | Bacterial growth, First Inoculum Days 4 ([4]; Conc. 100 (ppm ZHMT)): − | Bacterial growth, First Inoculum Days 7 ([4]; Conc. 100 (ppm ZHMT)): − | Bacterial growth, Second Inoculum Days 4 ([4]; Conc. 100 (ppm ZHMT)): +++ | Bacterial growth, Second Inoculum Days 7 ([4]; Conc. 100 (ppm ZHMT)): +++ | Bacterial growth, Second Inoculum Days 14 ([4]; Conc. 100 (ppm ZHMT)): +++ | Bacterial growth, Third Inoculum Days 4 ([4]; Conc. 100 (ppm ZHMT)): +++ | Bacterial growth, Third Inoculum Days 7 ([4]; Conc. 100 (ppm ZHMT)): +++ | Bacterial growth, Third Inoculum Days 21 ([4]; Conc. 100 (ppm ZHMT)): +++ | Bacterial growth, First Inoculum Days 4 ([4]; Conc. 200 (ppm ZHMT)): − | Bacterial growth, First Inoculum Days 7 ([4]; Conc. 200 (ppm ZHMT)): − | Bacterial growth, Second Inoculum Days 4 ([4]; Conc. 200 (ppm ZHMT)): ++ | Bacterial growth, Second Inoculum Days 7 ([4]; Conc. 200 (ppm ZHMT)): ++ | Bacterial growth, Second Inoculum Days 14 ([4]; Conc. 200 (ppm ZHMT)): ++ | Bacterial growth, Third Inoculum Days 4 ([4]; Conc. 200 (ppm ZHMT)): +++ | Bacterial growth, Third Inoculum Days 7 ([4]; Conc. 200 (ppm ZHMT)): +++ | Bacterial growth, Third Inoculum Days 21 ([4]; Conc. 200 (ppm ZHMT)): +++ | ZHMT level at which the paint is preserved ([4]; styrene-acrylic emulsion paint): > 200 ppm

[O-]n1ccccc1=S.[O-]n1ccccc1=S.[Zn+2] [2:1 zinc complex of 1-hydroxypyridine-2-thione]
synergy with ZnAc ([1]; ZHMT replaced by this complex): no synergy
